Values quoted from earlier work as cited in US20240207454A1, “NEURO-BEHAVIORAL ASSAY FOR PHYSIOLOGICAL EVALUATION OF WATER-SOLUBLE ANESTHETICS” (Northeastern University, priority 2022, published 2024).

Molecular target: T1, GABAA receptor subtype α1β2γ2 (Homo sapiens, UniProt P14867+P18507+P47870)
T1 construct: host or cells: human embryonic kidney 293 cells (heterologous expression)
Conditions: human embryonic kidney 293 cells expressing α1β2γ2; cited from earlier work

T1 sequence (P14867 28-456): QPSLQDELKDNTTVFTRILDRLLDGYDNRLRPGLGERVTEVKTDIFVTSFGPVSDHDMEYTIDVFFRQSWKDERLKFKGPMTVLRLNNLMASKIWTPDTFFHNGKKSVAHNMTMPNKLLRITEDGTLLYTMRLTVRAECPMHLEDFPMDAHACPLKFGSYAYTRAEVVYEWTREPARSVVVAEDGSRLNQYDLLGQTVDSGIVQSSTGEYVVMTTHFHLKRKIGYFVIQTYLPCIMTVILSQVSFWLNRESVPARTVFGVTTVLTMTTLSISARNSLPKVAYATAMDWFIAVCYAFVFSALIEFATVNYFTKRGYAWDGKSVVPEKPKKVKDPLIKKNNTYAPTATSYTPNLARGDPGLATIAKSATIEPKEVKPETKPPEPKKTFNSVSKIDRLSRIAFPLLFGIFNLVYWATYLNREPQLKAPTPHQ
T1 sequence (P47870 25-512 limits assumed): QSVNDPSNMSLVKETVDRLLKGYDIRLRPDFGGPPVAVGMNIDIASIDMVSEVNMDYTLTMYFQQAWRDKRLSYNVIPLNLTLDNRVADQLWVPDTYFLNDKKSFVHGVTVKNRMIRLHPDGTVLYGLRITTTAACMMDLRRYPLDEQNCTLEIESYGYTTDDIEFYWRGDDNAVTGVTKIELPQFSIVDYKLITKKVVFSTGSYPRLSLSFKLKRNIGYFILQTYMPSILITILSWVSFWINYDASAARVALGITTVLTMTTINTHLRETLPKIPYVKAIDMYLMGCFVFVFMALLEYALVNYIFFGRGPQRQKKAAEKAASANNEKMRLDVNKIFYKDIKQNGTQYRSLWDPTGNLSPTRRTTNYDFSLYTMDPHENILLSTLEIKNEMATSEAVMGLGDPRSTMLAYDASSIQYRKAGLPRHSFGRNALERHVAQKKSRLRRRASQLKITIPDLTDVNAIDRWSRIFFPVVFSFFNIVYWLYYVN
T1 sequence (P18507 40-475): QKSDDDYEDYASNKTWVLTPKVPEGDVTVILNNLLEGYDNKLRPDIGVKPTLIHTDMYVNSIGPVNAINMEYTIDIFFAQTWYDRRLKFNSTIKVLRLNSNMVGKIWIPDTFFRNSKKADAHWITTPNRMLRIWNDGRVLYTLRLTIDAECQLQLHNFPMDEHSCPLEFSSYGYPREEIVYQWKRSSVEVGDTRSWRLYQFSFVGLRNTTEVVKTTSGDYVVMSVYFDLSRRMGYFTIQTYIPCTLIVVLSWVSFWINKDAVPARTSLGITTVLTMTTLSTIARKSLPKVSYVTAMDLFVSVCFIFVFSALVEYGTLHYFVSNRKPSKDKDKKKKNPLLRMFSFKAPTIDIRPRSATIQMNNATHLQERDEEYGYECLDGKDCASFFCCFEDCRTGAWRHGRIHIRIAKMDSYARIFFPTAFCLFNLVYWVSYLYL

C=CCc1ccc(O)c(OC)c1 [eugenol]
Effect on GABA-induced current: inhibits GABAA current in a reversible, dose-dependent manner
